Assay results taken from patent US4997850A, “Treating agent for osteroarthritis” (Kureha Kagaku Kogyo Kabushiki Kaisha, priority 1989, dated 1991).

What was measured:
[1] = Acute toxicity (LD50) of further compounds, determined in the same manner as ACP; type: in vivo; conditions: same manner as ACP (oral or subcutaneous, mice and rats)
Description: For oral administration, a suspension of ACP dispersed in an aqueous solution of 0.5% methylcellulose and 0.4% Tween 80 (nonionic surfactant, manufactured by TOKYO KASEI, Co., Ltd.) was prepared and administered to the animals via a stomach sonde. For subcutaneous administration, a suspension of ACP dispersed in an aqueous physiological saline solution containing 0.5% of carboxymethyl cellulose sodium (hereinafter referred to as "CMC") was prepared and injected to the animals with a syringe.
Further, the acute toxicities (LD50) of […]

[2] = tested on: IL-1 release from human monocyte; experiment: Inhibition of IL-1 (IL-1α and IL-1β) release from human monocyte; type: cell-based; conditions: 3.3 μM; LPS 10 μg/ml, 42 hours
Description: Monocyte were isolated from human venous blood by density-gradient centrifugation using a Ficoll-paque solution and obtained the cells having a purity of not less than 95% by purifying with a monocyte-separating plate. After dispersing the cells in a medium, RPMI 1640, containing 10% of FBS, the monocyte were inoculated in a culture dish in a ratio of 10^6 cells/3 ml/well and cultured under an atmosphere containing 5% CO2 at 37° C. for 30 minutes. Then, each 15 μl of DMSO solution of one of ACP, PAL and PAC was added to each well (a final DMSO concentration of 0.5%) and 30 minutes later a lipopolysaccharide (hereinafter referred to as "LPS"), a substance to stimulate IL-1 production, was added at a final LPS concentration of 10 μg/ml and they were cultured for 42 hours. Then, the reacted culture medium was recovered and accompanied cells with the medium were separated by centrifugation and obtained the supernatant free of cell. IL-1α and IL-1β released from the cells were measured by ELISA method in the same manner as in item (i) above.

[3] = tested on: proteoglycan (PG) release under IL-1α; experiment: Proteoglycan (PG) release from prelabelled cultured cartilage matrix with addition of IL-1α; type: cell-based; conditions: for inhibition of PG release under IL-1α: 20 units of IL-1α, 10 μM; for inhibiting activity on PG release (further compounds): concentration not given
Description: Further, to a cultured cartilage matrix, in which PG is prelabelled in advance with 1 μCi of Na2^35 SO4, 20 units of IL-1α was added to each group including control group and 10 μM of PAL, 100 μM of PAL or 10 μM of ACP was added to each test group and studied the effect of each compound to the PG release from the cells.

| SMILES | acute toxicities (LD50), compared with ACP [1] | inhibition of IL-1 release [2] | inhibition of PG release under IL-1α [3] | inhibiting activity on PG release (further compounds) [3] |
| --- | --- | --- | --- | --- |
| CCCCCCCCCCCCCCCCCC(=O)Oc1ccc(C(OC(=O)CCCCCCCCCCCCCCCCC)OC(=O)CCCCCCCCCCCCCCCCC)cc1OC(=O)CCCCCCCCCCCCCCCCC [3,4-di-n-octadecanoyloxybenzylidene di-n-octadecanoate] | approximately same values | significantly inhibit | inhibited the release amount of PG |  |
| CC(=O)Oc1ccc(C(=O)O)cc1OC(C)=O [3,4-diacetoxybenzoic acid] | approximately same values |  |  | same effects |
| CCC(=O)Oc1ccc(C(OC(=O)CC)OC(=O)CC)cc1OC(=O)CC [3,4-di-n-propionyloxybenzylidene di-n-propionate] | approximately same values | significantly inhibit | inhibited the release amount of PG |  |
| CCCCCCCCCCCCCCCCCC(=O)Oc1ccc(C=O)cc1OC(=O)CCCCCCCCCCCCCCCCC [3,4-di-n-octadecanoyloxybenzaldehyde] | approximately same values |  |  | same effects |
| CCCCCCCCCCCCCCCCCC(=O)OC(OC(=O)CCCCCCCCCCCCCCCCC)c1ccc(OC(C)=O)c(OC(C)=O)c1 [3,4-diacetoxybenzylidene di-n-octadecanoate] | approximately same values |  |  | same effects |
| CCCCCCCCCCCC(=O)Oc1ccc(C(OC(=O)CCCCCCCCCCC)OC(=O)CCCCCCCCCCC)cc1OC(=O)CCCCCCCCCCC [3,4-di-n-dodecanoyloxybenzylidene di-n-dodecanoate] | approximately same values | significantly inhibit | inhibited the release amount of PG |  |
| O=Cc1ccc(OC(=O)c2ccccc2)c(OC(=O)c2ccccc2)c1 [3,4-dibenzoyloxybenzaldehyde] | approximately same values |  |  | same effects |
| CCCCCCCCCCCCCCCCCC(=O)Oc1ccc(C(OC(C)=O)OC(C)=O)cc1OC(=O)CCCCCCCCCCCCCCCCC [3,4-di-n-octadecanoyloxybenzylidene diacetate] | approximately same values |  |  | same effects |
| CCCC(=O)Oc1ccc(C(OC(=O)CCC)OC(=O)CCC)cc1OC(=O)CCC [3,4-di-n-butyryloxybenzylidene di-n-butyrate] | approximately same values |  |  | same effects |
| CC(=O)Oc1ccc(C(=O)[O-])cc1OC(C)=O.[Na+] [3,4-diacetoxybenzoic acid sodium salt] | approximately same values |  |  | same effects |
| CCCCCCCCCCCCCC(=O)Oc1ccc(C(OC(=O)CCCCCCCCCCCCC)OC(=O)CCCCCCCCCCCCC)cc1OC(=O)CCCCCCCCCCCCC [3,4-di-n-tetradecanoyloxybenzylidene di-n-tetradecanoate] | approximately same values |  |  | same effects |
| CCCCCCCCCCCCCCCC(=O)Oc1ccc(C(OC(=O)CCCCCCCCCCCCCCC)OC(=O)CCCCCCCCCCCCCCC)cc1OC(=O)CCCCCCCCCCCCCCC [3,4-di-n-hexadecanoyloxybenzylidene di-n-hexadecanoate] | approximately same values |  |  | same effects |
| CC(=O)Oc1ccc(C=O)cc1OC(C)=O [3,4-diacetoxybenzaldehyde] | approximately same values |  |  | same effects |
